Several values for one entry are separate records, joined by “and”; a condition that tells them apart may be missing. Identical values can stand only once.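 Following 48 hours of exposure in 96-well plates, responses at five concentrations were used to interpolate endpoints linearly. Abbreviation: GI50, concentration required for 50% inhibition of growth. The concentration for full growth arrest is given as TGI.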 Bounds are passed on as bounds.

This assay relates to MDA-MB-468 breast. Nature of the assay: NCI tumour cell line growth inhibition, 48 h.
As to `Cn1c([N+](=O)[O-])cnc1/C=C1\Oc2ccc(Br)cc2C1=O`, the GI50 is 1.59 µM and the TGI was 4.6 µM.

As to `COc1cc(/C=C/c2cc(/C=C/c3ccc(O)c(OC)c3)n(C(=O)Cc3ccccc3)n2)ccc1O`, the GI50 was 1.17 µM and the TGI worked out at 4.58 µM.

As to `Fc1ccc(-c2cc3nc(C(Cl)Cl)nc(-c4cccs4)n3n2)cc1`, the GI50 is 0.219 µM and the TGI worked out at 0.666 µM. In the same order, the values of `CCCCN1C=CCN(CCCC)C1` are 18.6 µM and 61.3 µM. As to `COc1cc(Nc2cc(O)c3c(=O)cc(-c4ccccc4)oc3c2)cc(OC)c1`, the GI50 is 0.279 µM. On to `COc1ccc(-c2cc(C(=O)N3N=C(c4ccc(N)cc4)CC3c3ccc(Cl)cc3)c3ccccc3n2)cc1` (stereo unspecified), for which the GI50 is 2.95 µM and the TGI is over 100 µM. As for `CCC(=O)OCC1OC(n2cnc3c(=S)nc(N)[nH]c32)C(OC(=O)CC)C1OC(=O)CC` (stereo unspecified), the GI50 is 1.18 µM and the TGI was determined as 7.45 µM. `COC1=C(C)C(=O)N2[C@@H]1[C@H](c1ccccc1)OC21C=CC(=O)C=C1`: the GI50 is 2.54 µM and the TGI came to 9.24 µM. In the same order, the values of `COc1cc(Nc2ncc3c(C)nc(-c4cccc(C(F)(F)F)c4)n3n2)cc(OC)c1OC` are 2.81 µM and 5.98 µM. For `Cc1ccc(N(CC(=O)Nc2ccc(S(=O)(=O)NC3CCN(C)CC3)cc2)S(=O)(=O)c2ccc(Cl)cc2)cc1`, the GI50 is 1.91 µM and the TGI came to 4 µM.

Turning to `Oc1ccc(OCCOc2ccc(O)cc2)cc1`, the GI50 was 32.7 µM and the TGI is over 100 µM. With `COc1cc(C2CC(c3ccc(SC)cc3)=NN2C(C)=O)cc(OC)c1OC` (stereo unspecified), the GI50 was 3.71 µM and the TGI was 26.2 µM. For the compound `CN(C)CCCNc1nc2ccccc2c2c(=O)c3cc(F)ccc3sc12`, the GI50 was 0.675 µM and the TGI is 2.16 µM. The corresponding values for `COc1ccc([C@H]2[C@H](O)C(=O)N2c2cc(OC)c(OC)c(OC)c2)cc1` are under 0.01 µM and over 100 µM. `COc1cc(/C=C/[N+](=O)[O-])c([N+](=O)[O-])cc1OC`: the GI50 is 1.02 µM and the TGI was determined as 2.3 µM. The corresponding values for `O=C(c1ccc(Oc2ccccc2)cc1Cl)c1c[nH]c2ncnc(N[C@@H]3CC[C@@H](CO)OC3)c12` are 1.01 µM and 3.73 µM.

As to `CCN(Cc1cc(F)cc(F)c1)c1ccc(CO)c(Cl)c1`, the GI50 is 0.0187 µM and the TGI worked out at 0.0505 µM. Turning to `COc1ccc(/C=C/C(=O)c2c(O)c(C)c(O)c3c2OC2=CC(O)=C(C(C)=O)C(=O)[C@]23C)cc1`, the GI50 is 1.35 µM and the TGI came to 5.01 µM. On to `O=C(/C=C/c1c(-c2ccccc2)[nH]c2ccccc12)S(=O)(=O)c1ccccc1`, for which the GI50 is 1.98 µM and the TGI was found to be 8.75 µM. `O=C1NC(=O)/C(=C/c2ccc3ncccc3c2)S1`: the GI50 was 9.28 µM and the TGI is over 25 µM. The corresponding values for `CO[C@H]1/C=C/[C@@](C)(O)/C=C/C(=O)O[C@H](C)[C@@H](C)CC/C=C/1C` are 8.45 µM and 31 µM. Take `CO[C@@H](C)Cn1c(=O)n(C)c2cnc3ccc(-c4cncc(C(C)(C)O)c4)cc3c21`: the GI50 is 0.132 µM and 0.0601 µM; the TGI was 0.661 µM and 0.472 µM. For the compound `CC(c1ccccc1)N1C(=O)CSC1=S` (stereo unspecified), the GI50 was 0.303 µM and the TGI was over 100 µM. In the same order, the values of `COc1cc2c(Oc3ccc4[nH]c(C)cc4c3F)ncnc2cc1OCCCN1CCCC1` are 1.32 µM and 3.06 µM. In the same order, the values of `O=[N+]([O-])c1cc([N+](=O)[O-])c(NN=C(c2ccc(O)cc2)c2ccc(O)cc2)cc1Cl` are 0.247 µM and 0.55 µM. In the same order, the values of `COc1cc(C=C2c3ccccc3C(=O)c3ccccc32)ccc1OCCCCOc1cc2c(cc1OC)C(=O)N1CCCC1C=N2` (stereo unspecified) are 0.287 µM and 1.19 µM. As to `Cn1cc(-c2csc(-c3c[nH]c4ccc(F)cc34)n2)c2cccnc21`, the GI50 was 1.41 µM and the TGI is 5.24 µM. Turning to `O=C1/C(=C/c2ccccc2[N+](=O)[O-])Oc2ccc(O)cc21`, the GI50 was 1.81 µM and the TGI amounted to 3.85 µM. Regarding `Cc1ccc(NC(=O)c2ccc(CN3CC[C@H](N(C)C)C3)c(C(F)(F)F)c2)cc1Nc1nccc(-c2cncnc2)n1`, the GI50 was 5.05 µM and 7.37 µM; the TGI was 18.4 µM and > 10 µM. Regarding `CCOC(=O)c1cc(C(=O)c2cc(OC)cc(OC)c2)n2nc(C)ccc12`, the GI50 is 0.297 µM and the TGI is over 100 µM.

As for `CCCCc1ccc(NS(=O)(=O)c2cc3c4c(c2)CCN4C(=O)CC3)cc1`, the GI50 was 4.5 µM and the TGI was 94.2 µM. As for `COc1cc(/C=C/c2cc(/C=C/c3ccc(O)c(OC)c3)n(C(N)=O)n2)ccc1O`, the GI50 was 0.298 µM and the TGI stood at 1.52 µM.

With `COc1cc(C(=O)/C=C/c2c(-c3cccs3)nc3sccn23)cc(OC)c1OC`, the GI50 was 0.93 µM and the TGI is 2.89 µM. Turning to `O=C1C(=O)/C(=C/c2ccccc2)CCCCCC/C1=C/c1ccccc1`, the GI50 is 3.62 µM and the TGI was 17.7 µM. The corresponding values for `NCCCNc1nc2ccccc2c2c(=O)c3cccc(F)c3sc12` are 1.62 µM and 3.24 µM. For the compound `N#Cc1cc(-c2ccnc(Nc3ccc(NC(=O)CCl)cc3)n2)ccc1N1CCCC1`, the GI50 was 3.4 µM and the TGI amounted to 7.13 µM.

Source of the values: PubChem BioAssay (NCI).
